This passage reports Ki results from patent US20240400553A1, “AMINE BASED MATRIPTASE 2 INHIBITORS AND USES THEREOF” (Disc Medicine, Inc., priority 2023, published 2024).

This assay addresses T1, Human Recombinant Matriptase 2 (Homo sapiens, UniProt Q8IU80).
T1 construct: made in house
T1 sequence (Q8IU80 1-811): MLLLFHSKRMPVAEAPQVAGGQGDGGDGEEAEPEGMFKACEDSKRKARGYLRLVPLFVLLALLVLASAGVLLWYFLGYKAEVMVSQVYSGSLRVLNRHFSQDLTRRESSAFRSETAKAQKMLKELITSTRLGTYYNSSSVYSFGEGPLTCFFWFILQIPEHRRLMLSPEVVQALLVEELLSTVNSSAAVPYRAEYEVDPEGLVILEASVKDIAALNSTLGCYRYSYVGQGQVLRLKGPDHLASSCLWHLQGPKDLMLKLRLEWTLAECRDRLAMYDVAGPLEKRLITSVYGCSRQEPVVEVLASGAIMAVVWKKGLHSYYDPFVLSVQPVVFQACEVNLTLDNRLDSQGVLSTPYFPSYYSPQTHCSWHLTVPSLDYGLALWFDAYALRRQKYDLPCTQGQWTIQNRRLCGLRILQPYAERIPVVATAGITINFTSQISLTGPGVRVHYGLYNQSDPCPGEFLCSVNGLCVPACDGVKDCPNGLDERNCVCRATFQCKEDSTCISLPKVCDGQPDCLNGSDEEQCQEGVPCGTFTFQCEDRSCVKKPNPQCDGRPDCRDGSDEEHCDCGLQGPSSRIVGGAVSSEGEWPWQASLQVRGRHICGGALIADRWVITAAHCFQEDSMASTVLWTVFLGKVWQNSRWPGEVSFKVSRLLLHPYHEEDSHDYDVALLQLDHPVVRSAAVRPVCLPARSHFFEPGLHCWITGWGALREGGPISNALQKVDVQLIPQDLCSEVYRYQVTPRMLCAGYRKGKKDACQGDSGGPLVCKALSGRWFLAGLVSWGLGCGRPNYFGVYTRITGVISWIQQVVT
Nature of the assay: Matriptase 2 inhibition, fluorescence based assay (Method I). In kind it is biochemical. To be noted: Table A; Ki of Matriptase-2; read-out: Mat-2 Ki. A digest of the protocol: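 Fluorogenic readout (Ex 360/Em 480 nm) taken 60 min after adding 62 μM Boc-Gln-Ala-Arg-AMC, following 30-min enzyme–compound preincubation at 25 °C. Conditions: 3.5 nM in-house enzyme, pH 7.5 Tris/NaCl/gelatin buffer, 1% DMSO; percent inhibition versus concentration fitted by variable-slope sigmoidal regression.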
`Cc1cscc1CS(=O)(=O)Nc1cc(Cn2c(C(=O)OCC3CCN(C)CC3)cc3ccc(CN)nc32)c2ccccc2c1` [Compound 163, (1-methylpiperidin-4-yl)-methyl 6-(aminomethyl)-1-({3-[(4-methylthio-phen-3-yl)methanesul-fonamido]naphthalen-1-yl}methyl)-1H-pyrrolo-[2,3-b]pyridine-2-car-boxylate]: the Ki – broadly, a measure of affinity in units of concentration, obtained from inhibition or displacement – is at most 100 nM. Next, `NCc1ccc2cc(C(=O)OCC3CCN(C=O)CC3)n(Cc3cc(NS(=O)(=O)Cc4ccsc4)cc4ccccc34)c2n1` [Compound 164, (1-formylpiperidin-4-yl)methyl 6-(aminometh-yl)-1-({3-[(thiophen-3-yl)methanesulfonamido]-naphthalen-1-yl}methyl)-1H-pyrrolo[2,3-b]pyr-idine-2-carboxylate]: at most 100 nM. Then `Cn1ccnc1CNC(=O)c1cc2ccc(CN)nc2n1Cc1cc(NS(=O)(=O)Cc2ccsc2)cc2ccccc12` [Compound 165], with at most 100 nM; and `COCCN1CCC(COC(=O)c2cc3ccc(CN)nc3n2Cc2cc(NS(=O)(=O)Cc3ccsc3)cc3ccccc23)CC1` [Compound 167, [1-(2-methoxyethyl)-piperidin-4-yl]methyl 6-(aminomethyl)-1-({3-[(thiophen-3-yl)meth-anesulfonamido]naph-thalen-1-yl}methyl)-1H-pyrrolo[2,3-b]pyridine-2-carboxylate], with at most 100 nM. Next, `NCc1ccc2cc(C(=O)OCCN3CCOCC3)n(Cc3cc(NS(=O)(=O)Cc4ccsc4)cc4ccccc34)c2n1` [Compound 168, 2-(morpholin-4-yl)ethyl 6-(aminomethyl)-1-({3-[(thiophen-3-yl)methane-sulfonamido]naphthalen-1-yl}methyl)-1H-pyr-rolo[2,3-b]pyridine-2-carboxylate]: at most 100 nM; `CN(C)CCOC(=O)c1cc2ccc(CN)nc2n1Cc1cc(NS(=O)(=O)Cc2ccsc2)cc2ccccc12` [Compound 169, 2-(dimethylamino)ethyl 6-(aminomethyl)-1-({3-[(thiophen-3-yl)methane-sulfonamido]naphthalen-1-yl}methyl)-1H-pyr-rolo[2,3-b]pyridine-2-carboxylate]: at most 100 nM; `NCc1ccc2cc(C(=O)OC[C@H]3CNCCO3)n(Cc3cc(NS(=O)(=O)Cc4ccsc4)cc4ccccc34)c2n1` [Compound 170, [(2R)-morpholin-2-yl]-methyl 6-(aminomethyl)-1-({3-[(thiophen-3-yl)-methanesulfonamido]-naphthalen-1-yl}meth-yl)-1H-pyrrolo[2,3-b]-pyridine-2-carboxylate]: at most 100 nM.

Regarding `CC(=O)N(C)CCOC(=O)c1cc2ccc(CN)nc2n1Cc1cc(NS(=O)(=O)Cc2ccsc2)cc2ccccc12` [Compound 171, 2-(N-methylacetamido)-ethyl 6-(aminomethyl)-1-({3-[(thiophen-3-yl)-methanesulfonamido]-naphthalen-1-yl}meth-yl)-1H-pyrrolo[2,3-b]-pyridine-2-carboxylate], the Ki was at most 100 nM. Consider `NCc1ccc2cc(C(=O)NCCN3CCOCC3)n(Cc3cc(NS(=O)(=O)Cc4ccsc4)cc4ccccc34)c2n1` [Compound 173, 6-(aminomethyl)-N-[2-(morpholin-4-yl)ethyl]-1-({3-[(thiophen-3-yl)-methanesulfonamido]-naphthalen-1-yl}meth-yl)-1H-pyrrolo[2,3-b]-pyridine-2-carboxamide], for which the Ki is at most 100 nM. Then `CN1CCC(CCOC(=O)c2cc3ccc(CN)nc3n2Cc2cc(NS(=O)(=O)Cc3ccsc3)cc3ccccc23)CC1` [Compound 174], with at most 100 nM; and `CNCCOC(=O)c1cc2ccc(CN)nc2n1Cc1cc(NS(=O)(=O)Cc2ccsc2)cc2ccccc12` [Compound 175, 2-(methylamino)ethyl 6-(aminomethyl)-1-({3-[(thiophen-3-yl)methane-sulfonamido]naphthalen-1-yl}methyl)-1H-pyr-rolo[2,3-b]pyridine-2-carboxylate], with at most 100 nM. Regarding `NCc1ccc2cc(C(=O)OCC3CCOCC3)n(Cc3cc(NS(=O)(=O)Cc4ccsc4)cc4ccccc34)c2n1` [Compound 176, (oxan-4-yl)methyl 6-(aminomethyl)-1-({3-[(thiophen-3-yl)methane-sulfonamido]naphthalen-1-yl}methyl)-1H-pyr-rolo[2,3-b]pyridine-2-carboxylate], the Ki was at most 100 nM. On to `NCc1ccc2cc(C(=O)OCCN3CCCC3)n(Cc3cc(NS(=O)(=O)Cc4ccsc4)cc4ccccc34)c2n1` [Compound 177, 2-(pyrrolidin-1-yl)ethyl 6-(aminomethyl)-1-({3-[(thiophen-3-yl)methane-sulfonamido]naphthalen-1-yl}methyl)-1H-pyr-rolo[2,3-b]pyridine-2-carboxylate], for which the Ki was at most 100 nM.

For `Cc1oc(=O)oc1COC(=O)c1cc2ccc(CN)nc2n1Cc1cc(NS(=O)(=O)Cc2ccsc2)cc2ccccc12` [Compound 178, (5-methyl-2-oxo-2H-1,3-dioxol-4-yl)methyl 6-(aminomethyl)-1-({3-[(thiophen-3-yl)methane-sulfonamido]naphthalen-1-yl}methyl)-1H-pyr-rolo[2,3-b]pyridine-2-carboxylate], the inhibitory constant (Ki) is 100 to 500 nM.

As for `NCc1ccc2cc(C(=O)OCCC3CCOCC3)n(Cc3cc(NS(=O)(=O)Cc4ccsc4)cc4ccccc34)c2n1` [Compound 179, 2-(oxan-4-yl)ethyl 6-(aminomethyl)-1-({3-[(thiophen-3-yl)methane-sulfonamido]naphthalen-1-yl}methyl)-1H-pyr-rolo[2,3-b]pyridine-2-carboxylate], the inhibition constant Ki is 100 to 500 nM. Take `COc1ccccc1CS(=O)(=O)Nc1cc(Cn2c(C(=O)O)cc3ccc(CN)nc32)c2ccccc2c1` [Compound 180, 6-(aminomethyl)-1-({3-[(2-methoxyphenyl)-methanesulfonamido]-naphthalen-1-yl}meth-yl)-1H-pyrrolo[2,3-b]-pyridine-2-carboxylic acid]: the Ki lay within 100 to 500 nM. Next, `CN(Cc1nccn1C)C(=O)c1cc2ccc(CN)nc2n1Cc1cc(NS(=O)(=O)Cc2ccsc2)cc2ccccc12` [Compound 181, 6-(aminomethyl)-N-methyl-N-[(1-methyl-1H-imidazol-2-yl)meth-yl]-1-({3-{(thiophen-3-yl)methanesulfonamido]-naphthalen-1-yl}methyl)-1H-pyrrolo[2,3-b]pyr-idine-2-carboxamide]: 100 to 500 nM; `Cc1cccc(C)c1CS(=O)(=O)Nc1cc(Cn2c(C(=O)OC[C@H]3CNCCO3)cc3ccc(CN)nc32)c2ccccc2c1` [Compound 182, [(2R)-morpholin-2-yl]-methyl 6-(aminometh-yl)-1-({3-[(2,6-dimeth-ylphenyl)methanesulfon-amido]naphthalen-1-yl}-methyl)-1H-pyrrolo[2,3-b]pyridine-2-carboxylate]: at most 100 nM; `Cc1cccc(C)c1CS(=O)(=O)Nc1cc(Cn2c(C(=O)NCCC3CCN(C)CC3)cc3ccc(CN)nc32)c2ccccc2c1` [Compound 183, 6-(aminomethyl)-1-({3-[(2,6-dimethylphenyl)-methanesulfonamido]-naphthalen-1-yl}meth-yl)-N-[2-(1-methylpiper-idin-4-yl)ethyl]-1H-pyr-rolo[2,3-b]pyridine-2-carboxamide]: at most 100 nM. Next, `Cc1cccc(C)c1CS(=O)(=O)Nc1cc(Cn2c(C(=O)NCC3CCN(C)CC3)cc3ccc(CN)nc32)c2ccccc2c1` [Compound 184, 6-(aminomethyl)-1-({3-[(2,6-dimethylphenyl)-methanesulfonamido]-naphthalen-1-yl}meth-yl)-N-[(1-methylpiper-idin-4-yl)methyl]-1H-pyrrolo[2,3-b]pyridine-2-carboxamide]: at most 100 nM; `Cc1cccc(C)c1CS(=O)(=O)Nc1cc(Cn2c(C(=O)OCCC3CCN(C)CC3)cc3ccc(CN)nc32)c2ccccc2c1` [Compound 185, 2-(1-methylpiperidin-4-yl)ethyl 6-(aminometh-yl)-1-({3-[(2,6-dimethyl-phenyl)methanesulfon-amido]naphthalen-1-yl}-methyl)-1H-pyrrolo[2,3-b]pyridine-2-carboxylate]: at most 100 nM; `Cc1cccc(C)c1CS(=O)(=O)Nc1cc(Cn2c(C(=O)OCCN3CCN(C)CC3)cc3ccc(CN)nc32)c2ccccc2c1` [Compound 186]: at most 100 nM. `Cc1cccc(C)c1CS(=O)(=O)Nc1cc(Cn2c(C(=O)OCc3cncn3C)cc3ccc(CN)nc32)c2ccccc2c1` [Compound 187, (1-methyl-1H-imidazol-5-yl)methyl 6-(amino-methyl)-1-({3-[(2,6-dimethylphenyl)methane-sulfonamido]naphthalen-1-yl}methyl)-1H-pyr-rolo[2,3-b]pyridine-2-carboxylate]: the inhibitory constant (Ki) is at most 100 nM.
